Reference: patent US20230242526A1 (Zentaur Therapeutics International Limited, priority 2020, published 2023)

Legend:
CDK9/Cyclin T1 = CDK9/Cyclin T1 (Homo sapiens, UniProt P50750); test: CDK9/Cyclin T1 kinase assay; assay type: biochemical
Method: (1). Recombinant enzymes CDK1, CDK2, CDK4, CDK6, CDK9, cyclin B1, cyclin A2, cyclin D3, cyclin E1, cyclin T1 were cloned and purified at Wuxi Biortus Biochemistry Co. Ltd.
(8) Peptide substrate-CDK9 (Ahx-GSRTPMY-NH2, Scilight-Peptide, Cat. C0769102).
The test compounds were dissolved and diluted in DMSO. A stock DMSO solution of the test compound of the invention was prepared by dissolving the compound in DMSO to form a 10 mM solution.
2 μL of testing compound solutions and 5 μL of enzyme solution were added into the 384-well microplate followed by a 10 minute incubation. The reaction was then initiated by the addition of 5 μL of peptide substrate and ATP mixture solution and incubated at 27° C. for 30 minutes. The enzyme reaction in each well was terminated by adding 4 μL of 120 mM EDTA solution. Each assay was carried out in duplicates.
DMSO was used as negative control (0%) for enzyme activity. 20 μM Staurosporine was used as positive control (100%) for enzyme activity.
Plates were read for fluorescence on a Caliper EZ Reader II by separating the fluorescent labeled substrate from the enzyme phosphorylation product by electrophoresis. Data were collected and analyzed using GraphPad Prism version 6.0 software.
Dose-response curves were plotted from inhibition data generated, each in duplicate, from 10 point serial dilutions of inhibitory compounds. Concentration of compound was plotted against % kinase activity. To generate IC50 values, the dose-response curves were then fitted to a standard sigmoidal curve and IC50 values were derived by nonlinear regression analysis.

[1] = tested on: human breast squamous HCC1806 cell line; test: CyQUANT Direct cell proliferation assay, HCC1806; assay type: cell-based; conditions: HCC1806, 168 h, 7 days
Description: (§1) The human ovarian carcinoma OVCAR3 cell line (ATCC HTB-161™) or human breast squamous HCC1806 cell line (ATCC CRL 2335) were obtained from American Type Culture Collection (ATCC), and maintained in culture media according to the supplier's specification.
(§2) The CyQUANT® Direct Cell Proliferation Assay Kit (Invitrogen™, catalog No. G35012) was utilized to test the inhibitory activities of the CDK2 inhibitors described in this disclosure against OVCAR3 or HCC1806 tumor cells.
(§3) CyQUANT® Direct Cell Proliferation Assay: The spent medium from the purchased tumor cell culture plate was removed and the tumor cells were washed with PBS buffer twice. Trypsin (VWR catalog No. 0458-25G) was added to digest the tumor cells until tumor cells appeared round shaped and to dissociate adherent cells from the plate wall in which they are being cultured. Then RPMI-1640 media (HCC1806, Gibco™ catalog No, A10491-01) with 10% fetal bovine serum (FBS) (Hyclone™ catalog No. SV30160.03), or RPMI-1640 media (OVCAR-3, Gibco™ catalog No. 10370-021) with 20% FBS and 0.01 mg/mL insulin was added to stop the trypsin digestion reaction. The tumor cells were lightly agitated with a liquid transfer pipette to cause tumor cells suspended in the culture media. The cells were counted. The complete medium was used to prepare tumor cell suspension.
(§4) OVCAR3 or HCC1806 cells were seeded at 40 μL/well in 384-well plates in growth media containing FBS and cultured 24 hours in the incubator at 37° C., 5% CO2. […] Compound solutions were added by Agilent Bravo liquid handler. […] The control wells contained the growth medium having 0.1% DMSO. Cells were incubated at 37° C., 5% CO2 for 7 days.
(§5) CYQUANT Direct Cell Proliferation Assay (Molecular Probes, Eugene, Oreg.) was then performed following manufacturer's instructions to prepare the detection reagents. 50 μL of detection reagent was aliquot and added to each well and the cells were incubated at 37° C. for 1 hr.
(§6) The cell culture plates were placed on TECAN M1000 microplate reader to detect the fluorescence intensity at 508 nm excitation and 527 nm emission wavelengths. Graphpad Prism 6.0 software was used for data processing, preparing cell growth curve, calculating percentage inhibition on cell growth. IC50 values were calculated by concentration-response curve fitting utilizing a four-parameter analytical method using GraphPad Prism software.

[2] = tested on: human ovarian carcinoma OVCAR3 cell line; test: CyQUANT Direct cell proliferation assay, OVCAR-3; assay type: cell-based; conditions: OVCAR-3, 168 h, 7 days
Description: as §1, §2, §3, §4, §5, §6

in vitro [3] = conditions: microsomes
Method: (§7) Human liver microsomes (cat. No. 452161), mouse liver microsomes (cat. No. 452701), were purchased from Corning.
(§8) Samples were analyzed using LC-MS/MS using a SCIEX API 4000 mass spectrometer coupled with Agilent HPLC analytical system. After separation on a ZORBAX XDB-C18 column (5 μm, 50×2.1 mm, column No. 50-282) using an acetonitrile-water gradient system, peaks were analyzed by mass spectroscopy (MS) using ESI ionization in Q1 and Q3 scan mode.
(§9) The LC and MS are all controlled by Analyst software.
(§10) The liver microsomes were incubated with 1.0 μM of the testing compound at 37° C. The incubation mixture contained 100 mM PBS buffer (pH=7.4), 3 mM MgCl2 and 1 mM NADPH. The concentration of liver microsome in the incubation mixture was 0.5 mg/mL for testing compound, and 0.2 mg/mL for MDZ and the total volume is 0.2 mL. […] Aliquots were withdrawn at time points of 0 min, 5 min and 20 min for MDZ. The reactions were terminated by transferring the aliquots to a methanol solution containing the internal standard […] for analytical quantification. The quenched samples were analyzed by LC-MS/MS. The incubations were carried out in duplicates. The metabolic stability of the testing compounds by the liver microsomes of human and mice is expressed as elimination half-life (t1/2). The results are shown as the means of duplicate determinations±SD.

in vitro [4] = conditions: microsomes; remark: listed apart in the source
Method: as §7, §8, §9, §10

CDK9/Cyclin T1, sequence (P50750 whole entry): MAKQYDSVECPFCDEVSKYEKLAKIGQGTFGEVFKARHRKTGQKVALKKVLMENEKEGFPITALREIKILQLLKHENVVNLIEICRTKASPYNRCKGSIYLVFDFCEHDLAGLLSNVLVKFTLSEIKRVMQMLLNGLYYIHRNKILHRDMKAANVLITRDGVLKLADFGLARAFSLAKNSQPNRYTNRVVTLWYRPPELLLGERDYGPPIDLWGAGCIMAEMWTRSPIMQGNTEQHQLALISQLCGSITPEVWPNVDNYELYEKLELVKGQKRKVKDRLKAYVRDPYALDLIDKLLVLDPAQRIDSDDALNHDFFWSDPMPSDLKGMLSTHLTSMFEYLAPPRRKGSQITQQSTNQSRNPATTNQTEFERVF
CDK9/Cyclin T1, sequence (O60563 whole entry partner): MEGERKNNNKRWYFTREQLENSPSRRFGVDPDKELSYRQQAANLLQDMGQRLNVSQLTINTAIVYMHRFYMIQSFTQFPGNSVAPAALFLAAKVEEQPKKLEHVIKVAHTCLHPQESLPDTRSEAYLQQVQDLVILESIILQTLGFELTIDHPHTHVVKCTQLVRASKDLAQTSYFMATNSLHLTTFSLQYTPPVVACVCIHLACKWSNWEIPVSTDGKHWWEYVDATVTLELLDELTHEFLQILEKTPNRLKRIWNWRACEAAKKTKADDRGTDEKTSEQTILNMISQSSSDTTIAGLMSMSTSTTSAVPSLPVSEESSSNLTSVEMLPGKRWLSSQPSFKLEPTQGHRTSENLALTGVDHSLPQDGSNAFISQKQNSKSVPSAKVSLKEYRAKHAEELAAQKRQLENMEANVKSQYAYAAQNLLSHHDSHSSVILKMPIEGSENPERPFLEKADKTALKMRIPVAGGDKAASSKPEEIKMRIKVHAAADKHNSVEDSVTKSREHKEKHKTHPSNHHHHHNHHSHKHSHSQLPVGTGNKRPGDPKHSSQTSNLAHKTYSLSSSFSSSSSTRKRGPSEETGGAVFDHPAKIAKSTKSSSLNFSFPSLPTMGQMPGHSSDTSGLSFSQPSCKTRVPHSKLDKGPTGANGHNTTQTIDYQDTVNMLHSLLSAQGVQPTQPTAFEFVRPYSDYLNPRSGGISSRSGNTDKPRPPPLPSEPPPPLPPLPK

SMILES | IC50 (CDK9/Cyclin T1) [µM] | IC50 [1] [nM] | IC50 [2] [nM] | half-life at 1 μM (in vitro [3]; human, pH 7.4, t1/2 human) [min] | half-life at 1 μM (in vitro [4]; mouse, pH 7.4, t1/2 mouse) [min] | half-life at 1 μM (in vitro [3]; pH 7.4) [min] | half-life at 1 μM (in vitro [4]; pH 7.4) [min]
[2H]C(F)(F)c1cc2cnc(NC3CCN(S(C)(=O)=O)CC3)nc2n(C2CCCC2(C)O)c1=O (racemic) [Comp. 20, (±)-6-(difluoromethyl-d)-8-(2-hydroxy-2-methylcyclopentyl)-2-((1-(methylsulfonyl)piperidin-4-yl)amino)pyrido[2,3-d]pyrimidin-7(8H)-one] | 6 | 125 | 104 |  |  |  | 
Cc1cc2cnc(NC3CCN(S(C)(=O)=O)CC3)nc2n([C@@H]2CCC[C@@]2(C)O)c1=O (racemic) [Comp. 3, (±)-8-(2-hydroxy-2-methylcyclopentyl)-6-methyl-2-((1-(methylsulfonyl)piperidin-4-yl)amino)pyrido[2,3-d]pyrimidin-7(8H)-one, reference compound] |  | 53.4 | 38.5 |  |  |  | 
[2H]C1(Nc2ncc3ccc(=O)n([C@@H]4CCC[C@@]4(C)O)c3n2)CCN(S(C)(=O)=O)CC1 [Comp. 47, (−)-8-((1R,2R)-2-hydroxy-2-methylcyclopentyl)-2-((1-(methylsulfonyl)piperidin-4-yl-4-d)amino)pyrido[2,3-d]pyrimidin-7(8H)-one] |  |  |  | 990 | 24.5 |  | 
C[C@@]1(O)CCC[C@H]1n1c(=O)ccc2cnc(NC3CCN(S(C)(=O)=O)CC3)nc21 [Comp. 6, (−)-8-(2-hydroxy-2-methylcyclopentyl)-2-((1-(methylsulfonyl)piperidin-4-yl)amino)pyrido[2,3-d]pyrimidin-7(8H)-one, reference compound] | 6.45 | 56.1 | 39.2 | 693 | 24.2 |  | 
Cc1ncc2n1-c1ccc(Cl)cc1C(c1ccccc1F)=NC2 [Midazolam, reference compound] |  |  |  |  |  | 16.3 | 4.59
[2H]C1([2H])CN(S(C)(=O)=O)CC([2H])([2H])C1Nc1ncc2ccc(=O)n([C@@H]3CCC[C@@]3(C)O)c2n1 [Comp. 61, (−)-8-((1R,2R)-2-hydroxy-2-methylcyclopentyl)-2-((1-(methylsulfonyl)piperidin-4-yl-3,3,5,5-d4)amino)pyrido[2,3-d]pyrimidin-7(8H)-one] |  | 69.2 |  | 578 | 23.5 |  | 
CCN1CCN(Cc2ccc(Nc3ncc(F)c(-c4cc(F)c5nc(C)n(C(C)C)c5c4)n3)nc2)CC1 [LY2835219] |  | 161 | 4370 |  |  |  | 
C[C@@]1(O)CCC[C@H]1n1c(=O)ccc2cnc(NC3CCN(S(C)(=O)=O)CC3)nc21 (racemic) [Comp. 1, (±)-8-(2-hydroxy-2-methylcyclopentyl)-2-((1-(methylsulfonyl)piperidin-4-yl)amino)pyrido[2,3-d]pyrimidin-7(8H)-one, reference compound] |  | 86.5 | 54.3 |  |  |  | 
[2H]C([2H])([2H])c1cc2cnc(NC3CCN(S(C)(=O)=O)CC3)nc2n(C2CCCC2(C)O)c1=O (racemic) [Comp. 11, (±)-8-(2-hydroxy-2-methylcyclopentyl)-6-(methyl-d3)-2-((1-(methylsulfonyl)piperidin-4-yl)amino)pyrido[2,3-d]pyrimidin-7(8H)-one] |  | 28.6 | 21.3 |  |  |  | 
